Literature values in US20040062754A1, “Photopheresis treatment of chronic HCV infections” (priority 1996, published 2004).

How the values were obtained:
[1] = system: progressive systemic sclerosis; settings: 56 patients enrolled

## Nc1nc2c(ncn2COCCO)c(=O)[nH]1 [acyclovir]
Hepatitis C virus; in vivo
  benefit in chronic hepatitis C: little benefit

## interferon-alpha
Hepatitis C virus; in vivo
  relapse rate after interferon therapy: 80-85%
Hepatitis C virus; ten patients, subcutaneous injections for up to a year
  patients with normal LFTs and nondetectable HCV RNA by RT-PCR seven years later: Six

## CC(C)(S)[C@@H](N)C(=O)O [D-penicillamine]
[1]
  response rate: 32%

## interferon alpha-2b, recombinant
Hepatitis C virus; six month course, 3 million units three times a week
  sustained response off treatment: 18%
